According to patent US20040052734A1, “Process for providing a stable crystalline form of salbutamol” (Boehringer Ingelheim Pharma GmbH & Co. KG, priority 2002, published 2004):
Values joined by “and” are separate entries in the source; they are usually repeats but may differ in a detail not shown here. Identical values can stand only once.

Assays:
Format in all cases: physicochemical
[1] = Particle size analysis by powder laser diffraction (HELIOS, RODOS dry powder feeder)
Experimental: Micronised powders were prepared with a MC Jetmill 50 (Jetpharma, Balerna, Switzerland). The micronised powder underwent different conditioning settings in a climate chamber ([…] GmbH, […], Germany). The temperature was set at 25° C. and 40° C. and the relative humidity was varied in a field between 45% and 75%, respectively. For “dry” conditioning settings the powders were prepared at a temperature of 70° C. in a thermal oven (Heraeus, Hanau, Germany). […] Samples were introduced through the RODOS dry powder feeder. The supply pressure of the injector was at 3 bar.

[2] = Powder X-ray diffraction at different temperatures under vacuum; conditions: amorphous (produced by freeze-drying)
Experimental: The Powder X-Ray Diffraction (Bruker, Rheinstetten, Germany) patterns were acquired at different temperatures using Cu-K α radiation (λ=1.5406 Å). The data were collected over an angular range of 2-40°2θ using a step size of 0,014°2θ and a step time of 2 sec.

[3] = Recording of humidity (sorption behaviour of micronised, wrapped powder); conditions: unconditioned, stored at 55% RH
Experimental: Using a humidity sensor (Ebro, Ingolstadt, Germany) the sorption behaviour of the micronised and wrapped powder was measured. With the help of a humidity sensor it is possible to observe the sorption behaviour of the micronised, in a PE-bag wrapped, powder. Approx. 30 g of the freshly grinded substance are wrapped in a PE-bag together with a humidity sensor and afterwards closed.

[4] = Isothermal microcalorimetry (amorphous content / recrystallisation); conditions: for amorphous amount: micronised, stored in opened TWO-Glass at room temperature (21.5° C., 42% RH)
Experimental: The micronised powder underwent different conditioning settings in a climate chamber (Weiβ Klimatechnik GmbH, Reiskirchen-Lindstruth, Germany). The temperature was set at 25° C. and 40° C. and the relative humidity was varied in a field between 45% and 75%, respectively.
For “dry” conditioning settings the powders were prepared at a temperature of 70° C. in a thermal oven (Heraeus, Hanau, Germany).
The powder was investigated using a Thermal Activity Monitor (Type 2277, Thermometric, Sweden) at 25° C. The samples were weighted into a glass ampoule and a tube was added containing a saturated salt solution. The ampoule was sealed and equilibrated in the calorimeter for 5 min before lowering it into the measuring site.

[5] = Table 1 batch, micronised powder, before conditioning
[6] = Table 2 batch, micronised powder, before conditioning
[7] = micronised powder conditioned 5 hours by 70° C. (dry)

- effect of additional conditioning duration on particle size ([1]; 40° C. and 75% RH beyond five hours, storage under same conditions for two weeks): no effect on the particle size
- Particle size 10% < [1, 5]: 0.83 μm
- Particle size 50% < [1, 5]: 1.94 μm
- Particle size 90% < [1, 5]: 4.53 μm
- Particle size 10% < [1, 6]: 0.70 μm
- Particle size 50% < [1, 6]: 1.30 μm and 1.53 μm
- Particle size 90% < [1, 6]: 3.42 μm
- Particle size 10% < ([1]; conditioned 24 h 55% RH 25° C.): 0.78 μm
- Particle size 50% < ([1]; conditioned 24 h 55% RH 25° C.): 1.66 μm
- Particle size 90% < ([1]; conditioned 24 h 55% RH 25° C.): 3.56 μm
- Particle size 10% < ([1]; conditioned 24 h 55% RH 40° C.): 0.79 μm
- Particle size 50% < ([1]; conditioned 24 h 55% RH 40° C.): 1.68 μm
- Particle size 90% < ([1]; conditioned 24 h 55% RH 40° C.): 3.59 μm
- Particle size 10% < ([1]; conditioned 24 h 65% RH 25° C.): 0.82 μm
- Particle size 50% < ([1]; conditioned 24 h 65% RH 25° C.): 1.76 μm
- Particle size 90% < ([1]; conditioned 24 h 65% RH 25° C.): 3.67 μm
- Particle size 10% < ([1]; conditioned 24 h 65% RH 40° C.): 0.80 μm
- Particle size 50% < ([1]; conditioned 24 h 65% RH 40° C.): 1.72 μm
- Particle size 90% < ([1]; conditioned 24 h 65% RH 40° C.): 3.64 μm
- Particle size 10% < ([1]; conditioned 24 h 75% RH 25° C.): 0.83 μm
- Particle size 50% < ([1]; conditioned 24 h 75% RH 25° C.): 1.77 μm
- Particle size 90% < ([1]; conditioned 24 h 75% RH 25° C.): 3.69 μm
- Particle size 10% < ([1]; conditioned 24 h 75% RH 40° C.): 0.84 μm
- Particle size 50% < ([1]; conditioned 24 h 75% RH 40° C.): 1.78 μm
- Particle size 90% < ([1]; conditioned 24 h 75% RH 40° C.): 3.69 μm
- uncontrolled particle growth in terms of particle diameters ([1]; dry conditioning, then four weeks of storage): up to 16%
- Particle size 10% < [1, 7]: 0.82 μm
- Particle size 50% < [1, 7]: 1.90 μm
- Particle size 90% < [1, 7]: 4.45 μm
- particle size on storage without conditioning ([1]; wrapped, stored 21-23° C., approx. 45% RH, up to three months): shows likewise particle growth
- recrystallisation after dry conditioning ([4]; 70° C. for 5 hours): does not lead to recrystallisation
- reduction of the amorphous fraction ([4]; conditioning at 25° C. and 45% RH for 24 hours): 2.5%
- crystallinity after conditioning ([4]; five hours of conditioning at 40° C. and 75% RH, partially amorphous powder): complete crystalline material
- amorphous content ([4]; initial sample (micronised, before conditioning)): 7.7%
- amorphous amount ([4]; after 1st week): 6.5%
- amorphous amount ([4]; after 2nd week): 5.4%
- amorphous amount ([4]; after 4th week): 4.5%
- amorphous content ([4]; unconditioned powder, wrapped, stored four weeks at 21-23° C., approx. 45% RH): < 0.5%
SMILES: CC(C)(C)NC[C@H](O)c1ccc(O)c(CO)c1 (racemic) [salbutamol sulphate]
- recrystallisation of amorphous material [2]: does not recrystallize under exclusion of humidity
- recrystallisation on storage [3]: completely recrystallized within one week
